# In patent US12214079B2, “Micronized lipids” (MCAL Therapeutics Inc., priority 2021, dated 2025):
# “Also recorded” adds a separate entry of the source. Read-outs that look alike come from different tables or passages of the source.
# Key:
# [1] = Isomeric stability (1,2-EPRG to 1,3-EPRG acyl migration), NMR analysis of isomeric content; format: physicochemical
# Source text: FIG. 4 provides NMR (nuclear magnetic resonance) spectral analysis of 1,3-EPRG and 1,2-EPRG isomeric content (1.15 mol % 1,3-EPRG) of MCAL-201 after jet mill micronization.
# FIG. 5 provides NMR (nuclear magnetic resonance) spectral analysis of 1,3-EPRG and 1,2-EPRG isomeric content (0.0991 mol % 1,3-EPRG) of MCAL-201 after solid micronized MCAL-201suspension is stored at room temperature for 6 weeks.
# This led to development of the delivery of solid MCAL-201 as a suspension of crystalline or amorphous micronized solid particle suspended in a water-based formulation isotonic with tear. Although MCAL-201 crystalline drug substance floated on phosphate buffered saline (PBS) it could be suspended following micronization to 1-10 micron particles which could be stably suspended in PBS with the aid of polysorbate 80 as a wetting agent and xanthan gum to adjust density and viscosity of the drug product.
# healthy dogs = assay: Tear film break-up time (TBUT) by fluorescein after topical ocular administration; format: in vivo, dog; conditions: 5 healthy adult dogs
# Protocol: (§1) Scoring of the ocular surface and anterior segment of the eye was performed using the SPOTS system by a board-certified veterinary ophthalmologist. SPOTS was performed for each concentration evaluated. To measure TBUT, fluorescein was instilled in the eye and the eye was manually closed and then gently opened to simulate a blink. The time interval between the opening of the eye and the first sign of disruption of the uniform tear film, as indicated by breaks in the fluorescein was recorded in seconds. The procedure was repeated three times on both eyes, first right than left eye. After BID dosing with 10 mg/mL MCAL-201, SPOTS was also performed at 48 hours after the last dose.
# naive dogs = assay: Non-GLP topical ocular dose range-finding toxicity and tolerability study (SPOTS scoring); format: in vivo; conditions: up to 10 mg/mL OU BID for 48 hours
# Protocol: A non-GLP topical ocular administration dose range-finding pharmacology and toxicity study of MCAL-201 was conducted in naive dogs. The primary study objective was to assess the tolerability of topical ocular administration of MCAL-201 in dogs with a secondary objective to obtain data supporting pharmacological activity in healthy dogs.
# The effects of vehicle and 0.1, 0.5, 1, 3 and 10 mg/mL MCAL-201 delivered as a 35 μL drop bilaterally QD (0.0035, 0.0175, 0.035, 0.105 and 0.35 mg/eye/day) were evaluated in Part I. The dosing regimen is summarized in 3.
# as §1
# [2] = General and physiochemical properties of MCAL-201 (solubility, hygroscopicity); format: physicochemical
# Protocol: The general and physiochemical properties of MCAL-201 are: • 1,2-EPRG has a molecular weight of 611.05 g/mol • Empirical formula: C39H78O4 • Appearance: White powder • Particle size: 1-10 μm (post micronization) • Hygroscopicity: Low • Chirality: Racemic • Enantiomeric excess: 0 • Melting point: 57° C. • Solubility: Insoluble in water. Soluble in chloroform (40 mg/mL) and castor • oil (25 mg/mL)
# However, preparation of a water soluble cyclodextrin inclusion complex of MCAL-201 was used in nonclinical efficacy studies. In addition, solutions of MCAL-201 in castor oil which can be emulsified to micron sized liquid particles in aqueous buffers can be used to deliver MCAL-201 directly to the tear film lipid layer.
structure (smiles),measurement,setting,value
"CCCCCCCCCCCCCCCCCCCCOCC(CO)OC(=O)CCCCCCCCCCCCCCC (racemic) [MCAL-201, 1-O-eicosanyl-2-palmitoyl-rac-glycerol]","1,3-EPRG isomeric content (NMR)",[1]; after jet mill micronization,1.15 mol %
same,Chemical stability (acyl migration of palmitoyl from 2 to 3 position),[1]; liquid solution phase,lacked long-term chemical stability
same,Time for which isomeric stability was demonstrated,"[1]; micronized, in the suspension formulation at room temperature",6 weeks
same,Stability to the micronization process,[1]; particles recovered from formulated drug by centrifugation and washing,chemical and isomeric stability
same,"1,3-EPRG isomeric content (NMR)",[1]; solid micronized suspension stored at room temperature for 6 weeks,0.0991 mol %
same,Isomeric stability,"[1]; solid phase, compared with solution",far greater than in solution
same,Effect on TBUT,healthy dogs,extended TBUT
same,Ocular or systemic adverse events,naive dogs; any time or concentration evaluated,no ocular or systemic adverse events
same,Tolerability,naive dogs; topical ocular 35 μL drop,well tolerated
same,Hygroscopicity,[2],Low
same,solubility,"[2]; castor oil, oil or lipid, read-out: Solubility in castor oil",25 mg/mL
same,solubility,"[2]; chloroform, organic solvent or mixture, read-out: Solubility in chloroform",40 mg/mL
same,Solubility in water,[2]; water,Insoluble; also recorded: extreme insolubility
